Some results are limits rather than exact numbers.

The experiment addresses T1, human TLR7 (Homo sapiens, UniProt Q9NYK1).
T1 sequence (Q9NYK1 27-1049): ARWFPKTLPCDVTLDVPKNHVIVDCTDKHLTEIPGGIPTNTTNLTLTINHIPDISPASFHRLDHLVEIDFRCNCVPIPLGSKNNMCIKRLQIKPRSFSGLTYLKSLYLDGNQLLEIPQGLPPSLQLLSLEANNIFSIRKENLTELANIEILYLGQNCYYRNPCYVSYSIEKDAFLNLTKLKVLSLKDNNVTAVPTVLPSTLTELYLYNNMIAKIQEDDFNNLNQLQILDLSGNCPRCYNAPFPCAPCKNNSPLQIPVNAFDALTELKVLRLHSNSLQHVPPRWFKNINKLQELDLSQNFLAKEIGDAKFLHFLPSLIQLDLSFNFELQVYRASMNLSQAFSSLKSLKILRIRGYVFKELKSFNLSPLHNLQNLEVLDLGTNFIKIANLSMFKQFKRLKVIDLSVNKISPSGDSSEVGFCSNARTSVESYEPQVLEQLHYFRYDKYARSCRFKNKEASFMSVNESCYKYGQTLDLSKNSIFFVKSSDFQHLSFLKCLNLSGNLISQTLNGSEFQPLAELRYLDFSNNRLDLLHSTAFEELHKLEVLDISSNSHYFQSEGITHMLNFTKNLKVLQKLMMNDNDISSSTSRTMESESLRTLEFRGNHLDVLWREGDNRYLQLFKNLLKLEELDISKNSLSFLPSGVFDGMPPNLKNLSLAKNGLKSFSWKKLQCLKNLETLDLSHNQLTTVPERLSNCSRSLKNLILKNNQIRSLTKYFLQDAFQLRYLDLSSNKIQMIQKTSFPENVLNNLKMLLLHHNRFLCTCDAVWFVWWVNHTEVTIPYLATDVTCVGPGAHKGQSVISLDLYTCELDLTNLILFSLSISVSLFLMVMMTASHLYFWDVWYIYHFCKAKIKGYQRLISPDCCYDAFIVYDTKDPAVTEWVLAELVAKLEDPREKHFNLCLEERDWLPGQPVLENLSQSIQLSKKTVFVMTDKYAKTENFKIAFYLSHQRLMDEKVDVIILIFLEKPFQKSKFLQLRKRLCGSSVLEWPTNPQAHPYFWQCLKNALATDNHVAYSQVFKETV
In words: HEK293-Blue-hTLR-7 cells assay. In kind it is cell-based. The settings on record: HEK293-Blue-hTLR7 cells, R848 stimulation, 20 hrs, SEAP reporter; read-out: HEK/hTLR7 IC50. The text has this: HEK293-Blue-hTLR-7 Cells Assay:
A stable HEK293-Blue-hTLR-7 cell line was purchased from InvivoGen (Cat. #: hkb-htlr7, San Diego, California, USA). These cells were originally designed for studying the stimulation of human TLR7 by monitoring the activation of NF-κB. A SEAP (secreted embryonic alkaline phosphatase) reporter gene was placed under the control of the IFN-β minimal promoter fused to five NF-κB and AP-1-binding sites. The SEAP was induced by activating NF-κB and AP-1 via stimulating HEK-Blue hTLR7 cells with TLR7 ligands. Therefore the reporter expression was declined by TLR7 antagonist under the stimulation of a ligand, such as R848 (Resiquimod), for incubation of 20 hrs. The cell culture supernatant SEAP reporter activity was determined using QUANTI-Blue™ kit (Cat. #: rep-qb1, Invivogen, San Diego, Ca. USA) at a wavelength of 640 nm, a detection medium that turns purple or blue in the presence of alkaline phosphatase.
HEK293-Blue-hTLR7 cells were incubated at a density of 250,000˜450,000 cells/mL in a volume of 170 μL in a 96-well plate in Dulbecco's Modified Eagle's medium (DMEM) containing 4.5 g/L glucose, 50 U/mL penicillin, […], […], 2 mM L-glutamine, 10% (v/v) heat-inactivated fetal bovine serum with addition of 20 μL test compound 1n a serial dilution in the presence of final DMSO at 1% and 10 μL of 20 uM R848 in above DMEM, perform incubation under 37° C. in a CO2 incubator for 20 hrs. Then 20 μL of the supernatant from each well was incubated with 180 μL Quanti-blue substrate solution at 37° C. for 2 hrs and the absorbance was read at 620-655 nm using a spectrophotometer. The signaling pathway that TLR7 activation leads to downstream NF-κB activation has been widely accepted, and therefore similar reporter assay was modified for evaluating TLR7 antagonist.
As for `C[C@@H]1CN(c2ccc(C#N)c3ncccc23)C[C@@H]2c3ccc(N4CCOCC(N)C4)cc3CN12` (stereo partly drawn) [Example 54, 5-[(4R,10bS)-8-(6-amino-1,4-oxazepan-4-yl)-4-methyl-3,4,6,10b-tetrahydro-1H-pyrazino[2,1-a]isoindol-2-yl]quinoline-8-carbonitrile], the IC50 was 4 nM. On to `C[C@@H]1CN(c2ccc(C#N)n3nccc23)C[C@@H]2c3ccc(N4C[C@H](N)[C@@H](O)C4)cc3CN12` [Example 111, 4-[(4R,10bS)-8-[(3S,4S)-3-amino-4-hydroxy-pyrrolidin-1-yl]-4-methyl-3,4,6,10b-tetrahydro-1H-pyrazino[2,1-a]isoindol-2-yl]pyrazolo[1,5-a]pyridine-7-carbonitrile], for which the IC50 was determined as 14 nM. Take `C[C@@H]1CN(c2ccc(C#N)c3ncccc23)C[C@@H]2c3cccc(N4CCNCC4)c3CN12` [Example 8, 5-[(4R,10bS)-4-methyl-7-piperazin-1-yl-3,4,6,10b-tetrahydro-1H-pyrazino[2,1-a]isoindol-2-yl]quinoline-8-carbonitrile]: the IC50 was < 3.2 nM.

In the case of `C[C@@H]1CN(c2ccc(C#N)c3ncccc23)C[C@@H]2c3ccc(OCCN(C)C)cc3CN12` [Example 25, 5-[(4R,10bS)-8-[2-(dimethylamino)ethoxy]-4-methyl-3,4,6,10b-tetrahydro-1H-pyrazino[2,1-a]isoindol-2-yl]quinoline-8-carbonitrile], the IC50 was < 3.2 nM. To `C[C@@H]1CN(c2ccc(C#N)c3ncccc23)C[C@@H]2c3ccc(N4CCC(C)(N)CC4)cc3CN12` [Example 51, 5-[(4R,10bS)-8-(4-amino-4-methyl-1-piperidyl)-4-methyl-3,4,6,10b-tetrahydro-1H-pyrazino[2,1-a]isoindol-2-yl]quinoline-8-carbonitrile] belongs 1.4 nM; to `C[C@@H]1CN(c2ccc(C#N)n3nccc23)C[C@@H]2c3ccc(N4CC5CNCC(C4)O5)cc3CN12` [Example 107, 4-[(4R,10bS)-4-methyl-8-(9-oxa-3,7-diazabicyclo[3.3.1]nonan-3-yl)-3,4,6,10b-tetrahydro-1H-pyrazino[2,1-a]isoindol-2-yl]pyrazolo[1,5-a]pyridine-7-carbonitrile], 14.5 nM; to `C[C@@H]1CN(c2ccc(C#N)c3ncccc23)C[C@@H]2c3ccc(N4C[C@H](N)[C@@H](O)C4)cc3CN12` [Example 40A, 5-[(4R,10bS)-8-[(3S,4S)-3-amino-4-hydroxy-pyrrolidin-1-yl]-4-methyl-3,4,6,10b-tetrahydro-1H-pyrazino[2,1-a]isoindol-2-yl]quinoline-8-carbonitrile], 3.7 nM. With `C[C@@H]1CN(c2ccc(C#N)c3ncccc23)C[C@@H]2c3ccc(N4CC5CNCC(C4)O5)cc3CN12` [Example 14, 5-[(4R,10bS)-4-methyl-8-(9-oxa-3,7-diazabicyclo[3.3.1]nonan-3-yl)-3,4,6,10b-tetrahydro-1H-pyrazino[2,1-a]isoindol-2-yl]quinoline-8-carbonitrile], the IC50 turned out to be 4.5 nM.

In the case of `C[C@@H]1CN(c2ccc(C#N)c3ncccc23)C[C@@H]2c3ccc(N4C[C@@H](N)[C@](C)(O)C4)cc3CN12` [Example 45A, 5-[(4R,10bS)-8-[(3R,4R)-4-amino-3-hydroxy-3-methyl-pyrrolidin-1-yl]-4-methyl-3,4,6,10b-tetrahydro-1H-pyrazino[2,1-a]isoindol-2-yl]quinoline-8-carbonitrile], the IC50 worked out at 3.5 nM. To `C[C@@H]1CN(c2ccc(C#N)c3ncccc23)C[C@@H]2c3ccc(N4C[C@@H](N)[C@H](F)C4)cc3CN12` [Example 48, 5-[(4R,10bS)-8-[(3R,4R)-3-amino-4-fluoro-pyrrolidin-1-yl]-4-methyl-3,4,6,10b-tetrahydro-1H-pyrazino[2,1-a]isoindol-2-yl]quinoline-8-carbonitrile] belongs 5.8 nM; to `C[C@@H]1CN(c2ccc(C#N)c3ncccc23)C[C@@H]2c3ccc(N[C@@H]4CNC[C@H]4F)cc3CN12` [Example 33, 5-[(4R,10bS)-8-[[(3R,4R)-4-fluoropyrrolidin-3-yl]amino]-4-methyl-3,4,6,10b-tetrahydro-1H-pyrazino[2,1-a]isoindol-2-yl]quinoline-8-carbonitrile], < 3.2 nM; to `N#Cc1ccc(N2CCN3Cc4cc(N5CCNCC5)ccc4C3C2)c2scnc12` (centres unmarked) [Example 4, 7-(8-piperazin-1-yl-3,4,6,10b-tetrahydro-1H-pyrazino[2,1-a]isoindol-2-yl)-1,3-benzothiazole-4-carbonitrile], 18.3 nM.

In the case of `C[C@@H]1CN(c2ccc(C#N)n3nccc23)C[C@@H]2c3ccc(N4C[C@@H](N)[C@](C)(O)C4)cc3CN12` [Example 108, 4-[(4R,10bS)-8-[(3R,4R)-4-amino-3-hydroxy-3-methyl-pyrrolidin-1-yl]-4-methyl-3,4,6,10b-tetrahydro-1H-pyrazino[2,1-a]isoindol-2-yl]pyrazolo[1,5-a]pyridine-7-carbonitrile], the IC50 turned out to be 17.5 nM. Under `CO[C@H]1CN(c2ccc3c(c2)CN2C3CN(c3ccc(C#N)c4ncccc34)C[C@H]2C)C[C@@H]1N` (single isomer, unassigned) [Example 16A] stands 5.3 nM; under `C[C@@H]1CN(c2ccc(C#N)c3ncccc23)C[C@@H]2c3ccc(N4CC(N)C5(COC5)C4)cc3CN12` (stereo partly drawn) [Example 18, 5-[(4R,10bS)-8-(5-amino-2-oxa-7-azaspiro[3.4]octan-7-yl)-4-methyl-3,4,6,10b-tetrahydro-1H-pyrazino[2,1-a]isoindol-2-yl]quinoline-8-carbonitrile], 4.9 nM. On to `C[C@@H]1CN(c2ccc(C#N)c3ncccc23)C[C@@H]2c3ccc(N4CCC(N)(CO)C4)cc3CN12` (stereo partly drawn) [Example 19, 5-[(4R,10bS)-8-[3-amino-3-(hydroxymethyl)pyrrolidin-1-yl]-4-methyl-3,4,6,10b-tetrahydro-1H-pyrazino[2,1-a]isoindol-2-yl]quinoline-8-carbonitrile], for which the IC50 is 3.6 nM. Take `CO[C@H]1CCN(c2ccc3c(c2)CN2[C@H](C)CN(c4ccc(C#N)n5nccc45)C[C@H]32)C[C@H]1N` [Example 106, 4-[(4R,10bS)-8-[(3R,4S)-3-amino-4-methoxy-1-piperidyl]-4-methyl-3,4,6,10b-tetrahydro-1H-pyrazino[2,1-a]isoindol-2-yl]pyrazolo[1,5-a]pyridine-7-carbonitrile]: the IC50 stood at 22.6 nM. To `C[C@@H]1CN(c2ccc(C#N)c3nccnc23)C[C@@H]2c3ccc(N4CCNCC4)cc3CN12` [Example 7, 8-[(4R,10bS)-4-methyl-8-piperazin-1-yl-3,4,6,10b-tetrahydro-1H-pyrazino[2,1-a]isoindol-2-yl]quinoxaline-5-carbonitrile] belongs < 3.2 nM; to `C[C@@H]1CN(c2ccc(C#N)c3ncccc23)C[C@@H]2c3ccc(N4C[C@@H](N)[C@@H](F)C4)cc3CN12` [Example 47, 5-[(4R,10bS)-8-[(3R,4S)-3-amino-4-fluoro-pyrrolidin-1-yl]-4-methyl-3,4,6,10b-tetrahydro-1H-pyrazino[2,1-a]isoindol-2-yl]quinoline-8-carbonitrile], 4.8 nM. To `C[C@@H]1CN(c2ccc(C#N)c3ncccc23)C[C@@H]2c3ccc(N4CCNC[C@@](C)(O)C4)cc3CN12` [Example 55B, 5-[(4R,10bS)-8-[(6R)-6-hydroxy-6-methyl-1,4-diazepan-1-yl]-4-methyl-3,4,6,10b-tetrahydro-1H-pyrazino[2,1-a]isoindol-2-yl]quinoline-8-carbonitrile] belongs 16.1 nM.

The values above are taken from US12157746B2, “Tetrahydro-1H-pyrazino[2,1-a]isoindolylquinoline compounds for the treatment of autoimmune disease” (F. HOFFMANN-LA ROCHE AG, priority 2018, dated 2024).
